Experimental data published in patent publication US20230142274A1 (SIMCERE PHARMACEUTICAL CO., LTD., priority 2020, published 2023).

How the values were obtained:
WI-38 cells = test: Inhibition of human WI-38 embryonic lung cell proliferation (Cell-Titer Glo); assay type: cell-based; settings: Homo sapiens, 72 h, 3 days incubation, read-out: Anti-Proliferative Activity Against WI-38 cells IC50
Procedure: Introduction of the experimental principle: After the RAD51 inhibitor to be tested was co-incubated with human embryonic lung cells for a period of time, the influence of the test compound on cell proliferation was measured by a method for counting cell proliferation based on the quantitative measurement of intracellular ATP content.
Materials and Cells: WI-38 cells were purchased from ATCC; fetal bovine serum, 1640 medium and penicillin-streptomycin were purchased from Gibco Inc. (U.S.), 96-well plates were purchased from Corning Inc. (U.S.), and Cell-Titer Glo reagent was purchased from Promega Corporation (U.S.).
Cell culture: WI-38 cells were cultured in an EMEM culture medium containing 10% fetal bovine serum and 1% penicillin-streptomycin at 37° C. in an atmosphere containing 5% CO2. Cells in logarithmic growth phase could be used for experiments.
Assay of cell proliferation and viability: Cell-Titer Glo reagent was used to measure the inhibitory activities of the compounds on the proliferation of WI-38 cell strain. The concentration of cells was adjusted, and the cells were seeded in a 96-well plate and cultured at 37° C. in an atmosphere containing 5% CO2 for 24 hours. The powder of the compound was dissolved in 100% DMSO to form a 10 mM solution. 10 μl of the solution of the compound was aspirated and transferred into a 96-well compound plate containing 20 μl of DMSO solution in each well for 3-fold dilution and was then formulated to 10 serial dilutions. Thereafter, 2 μl of the solution of the compound was aspirated from the corresponding well and added correspondingly into a 96-well intermediate compound dilution plate containing 78 μl of complete culture medium in each well. The resultant was mixed well, and the plate was centrifuged at 1000 rpm for 1 minute. Finally, 10 μl of the solution of the compound was aspirated from the corresponding well of the 96-well intermediate compound dilution plate, and transferred into the corresponding well of the cell culture plate containing 90 μl of complete culture medium. The final concentration of DMSO was 0.25%. After the addition of the compound, the cells were continued to be incubated for 3 days at 37° C. in an atmosphere containing 5% CO2. Cell-Titer Glo reagent was added to measure cell viability.
% Compound inhibition was calculated and IC50 of the compound was fitted;
% Compound inhibition=1−100%×(Signal−Bottom)/(Top−Bottom)

Daudi cells = test: Inhibition of human Daudi lymphoma cell proliferation (Cell-Titer Glo); assay type: cell-based; settings: Homo sapiens, 72 h, 3 days incubation, read-out: Anti-Proliferative Activity Against Daudi cells IC50
Method in brief: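 Daudi cells in RPMI 1640 with 10% FBS were seeded and grown 24 h, then exposed for 3 days (37 °C, 5% CO2) to 10-point 3-fold serial dilutions at 0.25% final DMSO. Viability was read by CellTiter-Glo ATP luminescence, and IC50 was fitted from % inhibition against top/bottom controls.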

IC50 (Daudi cells) [nM]	Structure (SMILES)	IC50 (WI-38 cells) [nM]
51	Cc1cc(Nc2ccc(-c3cnc([C@H]4CC[C@H](NC(=O)OC(C)C)CC4)s3)c(S(=O)(=O)C(C)C)c2)n[nH]1 [Example 40, isopropyl trans-(4-(5-(2-(isopropylsulfonyl)-4-((5-methyl-1H-pyrazol-3-yl)amino)phenyl)thiazol-2-yl)cyclohexyl)carbamate]	22900
62	CC(C)OC(=O)N[C@H]1CC[C@H](c2ncc(-c3ccc(Nc4cc(C5CC5)[nH]n4)cc3S(=O)(=O)C(C)C)s2)CC1 [Example 45, isopropyl trans-N-[4-[5-[4-[(5-cyclopropyl-1H-pyrazol-3-yl)amino]-2-isopropylsulfonyl-phenyl]thiazol-2-yl]cyclohexyl]carbamate]	> 25000
100	CC(C)OC(=O)N[C@H]1CC[C@H](c2ncc(-c3ccc(Nc4cn(C)nn4)cc3P3(=O)CCCC3)s2)CC1 [Example 53, isopropyl trans-N-[4-[5-[4-[(1-methyltriazol-4-yl)amino]-2-(1-oxidophospholan-1-yl)phenyl]thiazol-2-yl]cyclohexyl]carbamate]	> 25000
10	CC(C)OC(=O)N[C@H]1CC[C@H](c2ncc(-c3ccc(Nc4cc(C5CC5)[nH]n4)cc3S(=O)(=O)C3CC3)s2)CC1 [Example 62, isopropyl trans-N-[4-[5-[4-[(5-cyclopropyl-1H-pyrazol-3-yl)amino]-2-cyclopropylsulfonyl-phenyl]thiazol-2-yl]cyclohexyl]carbamate]	> 25000
30	CC(C)OC(=O)N[C@H]1CC[C@H](c2ncc(-c3ccc(Nc4cnn(C)c4)cc3S(=N)(=O)C3CC3)s2)CC1 (stereo partly drawn) [Example 69, isopropyl trans-(4-(5-(2-(cyclopropanesulfonimidoyl)-4-((1-methyl-1H-pyrazol-4-yl)amino)phenyl]thiazol-2-yl)cyclohexyl)carbamate]	> 25000

The remaining lines, values behind:

Structure (SMILES)	IC50 (Daudi cells) [nM]	IC50 (WI-38 cells) [nM]
Cc1cc(Nc2ccc(-c3cnc([C@H]4CC[C@H](NC(=O)OC(C)C)CC4)s3)c(S(=O)(=O)NC(C)(C)C)c2)n[nH]1 [Example 28, isopropyl trans-(4-(5-(2-(N-(tert-butyl)sulfamoyl)-4-((5-methyl-1H-pyrazol-3-yl)amino)phenyl)thiazol-2-yl)cyclohexyl)carbamate]	48	15000
CC(C)OC(=O)N[C@H]1CC[C@H](c2ncc(-c3ccc(Nc4ccno4)cc3S(=O)(=O)NC(C)(C)C)s2)CC1 [Example 29, isopropyl trans-(4-(5-(2-(N-(tert-butyl)sulfamoyl)-4-(isoxazol-5-ylamino)phenyl)thiazol-2-yl)cyclohexyl)carbamate]	340	18400
CC(C)OC(=O)Nc1ccc(-c2cnc([C@H]3CC[C@H](NC(=O)OC(C)C)CC3)s2)c(S(=O)(=O)C(C)(C)C)c1 [Example 34, isopropyl trans-N-[3-tert-butylsulfonyl-4-[2-[4-(isopropoxycarbonylamino)cyclohexyl]thiazol-5-yl]phenyl]carbamate]	700	> 25000
Cc1cc(Nc2ccc(-c3cnc([C@H]4CC[C@H](NC(=O)OC(C)C)CC4)s3)c(S(=O)(=O)C(C)C)c2)nn1C [Example 36, isopropyl trans-(4-(5-(4-((1,5-dimethyl-1H-pyrazol-3-yl)amino)-2-(isopropylsulfonyl)phenyl)thiazol-2-yl)cyclohexyl)carbamate]	77	24600
Cc1cc(Nc2ccc(-c3cnc([C@H]4CC[C@H](NC(=O)OC(C)C)CC4)s3)c(S(=O)(=O)C(C)C)c2)no1 [Example 37, isopropyl trans-(4-(5-(2-(isopropylsulfonyl)-4-((5-methylisoxazol-3-yl)amino)phenyl)thiazol-2-yl)cyclohexyl)carbamate]	330	> 25000
CC(C)OC(=O)N[C@H]1CC[C@H](c2ncc(-c3ccc(Nc4cn(C)nn4)cc3S(=O)(=O)C(C)C)s2)CC1 [Example 39, isopropyl trans-(4-(5-(2-(isopropylsulfonyl)-4-((1-methyl-1H-1,2,3-triazol-4-yl)amino)phenyl)thiazol-2-yl)cyclohexyl)carbamate]	230	> 25000
